pIC50: −log10 of the molar value.
Assays:
β-hematin = experiment: β-Hematin inhibition assay (BHIA), cell-free NP-40 mediated; type: biochemical; details: mean of n = 3
Method: page 20: fold to attain six assay concentrations of 100-0.001 μg/mL. […] was used as the reference compound in this assay. The highest concentration of DMSO, which was used as the negative control, had no measurable effect on cell viability. After 44 hours of exposure of the cells to the test compounds, a solution of MTT was added. This was followed by an additional 4 hours of incubation at 37 °C. The assay plates were centrifuged, medium removed, and DMSO was added to the crystals. The amount of formazan was ascertained by measuring the absorbance at 540 nm. GraphPad Prism software was then used to generate IC50 values through a non-linear dose-response curve analysis. β-Hematin Inhibition Assay 20 mM stock solutions of controls and test compounds were made in DMSO. A solution […] was added to every well in columns 1-11 of a 96-well plate. 140 μL of water and 40 μL of 305.5 μM NP-40 were added to column 12 to mediate the formation of beta-hematin. 20 μL of test compounds (20 mM) were added to column 12 and 100 μL of this solution serially diluted to column 2, leaving column 1 blank (0 μM of test compound). 178.8 μL aliquot of hematin stock was suspended in 20 ml of a 1 M acetate buffer at pH 4.9. 100 μL of this hematin […] pH 7.4 and 50% pyridine) and 60 μL of acetone were added to all wells. The absorbances of plate wells were recorded at 405 nm on a SpectraMax plate reader. Sigmoidal dose-response curves with variable slopes were fitted to the absorbance data using GraphPad Prism to obtain the IC50 values for each compound. In vitro Microsomal Stability Assay The in vitro microsomal stability assay was performed in duplicate in a 96-well micro titre […] individually in human (pool of 50, mixed gender), rat (pool of 711, male Sprague Dawley) and mouse (pool of 1634, male CD1) liver microsomes (final protein concentration of 0.4 mg/mL; Xenotech, Kansas, USA), suspended in 0.1M phosphate buffer (pH 7.4). Incubations were S20

[1] = system: Chinese hamster ovarian (CHO) cell line; experiment: In vitro cytotoxicity MTT assay; type: cell-based; details: CHO vs PfNF54
Method: (§1) In vitro cytotoxicity was performed on the Chinese Hamster Ovarian cell line by measuring cellular growth and survival calorimetrically through the MTT assay.[29],[30] The formation of tetrazolium salt was used as a measure of chemosensitivity and growth. (Details of this assay is described in the Supporting Information.) page 19: et al, 1993). The test samples were prepared to a 10 mmol/L stock solution in 100% DMSO. Samples were tested as a suspension if not completely dissolved. Further dilutions to the desired starting concentration were freshly prepared in growth media on each occasion of the experiment. The standard antimalarial drugs chloroquine (CQ) and artesunate (Arts) were used as the reference drug in all experiments. A full dose-response was performed for all compounds […] value). Test samples were tested at a starting concentration of 6mmol/L, which was then serially diluted 2-fold in growth medium to generate the tested concentration range. The same dilution technique was used for all samples. CQ and Arts were tested from a starting concentration of 1μg/mL. The highest concentration of solvent to which the parasites were exposed was <0.1% and has no measurable effect on the parasite viability (data not shown). The assay plate was incubated at 37 °C for 72h in a sealed gas chamber under 3% O2 and 4% CO2 with the balance being N2. After 72h, the wells in the assay plate were gently resuspended, and 15μL from each well was transferred to a duplicate plate containing 100μL of Malstat reagent and 25μL of nitroblue tetrazolium solution in each well. Plates were left to develop for 20 minutes in the dark and then absorbance of each well was quantified using a spectrophotometer at 620nm wavelength. The remaining population of parasites at each concentration of the test compound was determined by comparing the absorbance of each well to the absorbance of a well containing the drug-free control. Survival was plotted against concentration and the IC50 values were obtained using a non-linear dose-response curve fitting analysis via the Dotmatics software platform.2 In vitro Cytotoxicity Assay In vitro cytotoxicity was performed on the Chinese Hamster Ovarian cell line by measuring […] diphenyltetrazolium bromide (MTT) assay.3,4 The formation of tetrazolium salt was used as a measure of chemosensitivity and growth. 2 mg/mL stock solutions of the test compounds were prepared in DMSO and stored at -20 °C until required. The stock solution was subsequently diluted with the assay medium to make up an initial concentration of 100 μg/mL. The initial 100 μg/mL solution is serially diluted 10- S19 page 20: fold to attain six assay concentrations of 100-0.001 μg/mL. […] was used as the reference compound in this assay. The highest concentration of DMSO, which was used as the negative control, had no measurable effect on cell viability. After 44 hours of exposure of the cells to the test compounds, a solution of MTT was added. This was followed by an additional 4 hours of incubation at 37 °C. The assay plates were centrifuged, medium removed, and DMSO was added to the crystals. The amount of formazan was ascertained by measuring the absorbance at 540 nm. GraphPad Prism software was then used to generate IC50 values through a non-linear dose-response curve analysis. β-Hematin Inhibition Assay 20 mM stock solutions of controls and test compounds were made in DMSO. A solution […] was added to every well in columns 1-11 of a 96-well plate. 140 μL of water and 40 μL of 305.5 μM NP-40 were added to column 12 to mediate the formation of beta-hematin. 20 μL of test compounds (20 mM) were added to column 12 and 100 μL of this solution serially diluted to column 2, leaving column 1 blank (0 μM of test compound). 178.8 μL aliquot of hematin stock was suspended in 20 ml of a 1 M acetate buffer at pH 4.9. 100 μL of this hematin suspension was then added into each well, and the plates were incubated for ±5 hrs at 37°C. […]

[2] = In vitro cytotoxicity MTT assay; type: cell-based, Chinese hamster; details: Chinese hamster, Chinese hamster ovarian (CHO) cells; MTT assay
Method: as §1

SMILES	pIC50 (β-hematin)	SI (selectivity index) = IC50 CHO/IC50 PfNF54 [1]	IC50 at 44 h [2] [µM]
CCN(CCNc1cc2[nH]c(C3CCCC3)nc2cn1)Cc1ccc(Cl)cc1O [Compound 1, 5-Chloro-2-(((2-((2-cyclopentyl-1H-imidazo[4,5-c]pyridin-6-yl)amino)ethyl)(ethyl)amino)methyl)phenol]	4.74	79.76	27.1
CCN(CCNc1cc2[nH]c(C3CC3)nc2cn1)Cc1ccc(Cl)cc1O [Compound 5, 5-Chloro-2-(((2-((2-cyclopropyl-1H-imidazo[4,5-c]pyridin-6-yl)amino)ethyl)(ethyl)amino)methyl)phenol]	4.80	119.08	46.4
CCN(CCNc1cc2[nH]c(C3(C)CC3)nc2cn1)Cc1ccc(Cl)cc1O [Compound 6, 5-Chloro-2-((ethyl(2-((2-(1-methylcyclopropyl)-1H-imidazo[4,5-c]pyridin-6-yl)amino)ethyl)amino)methyl)phenol]	4.48	>102.04	> 50
CCN(CCNc1cc2[nH]c(-c3cccc(C(F)(F)F)c3)nc2cn1)Cc1ccc(Cl)cc1O [Compound 14, 5-Chloro-2-((ethyl(2-((2-(3-(trifluoromethyl)phenyl)-1H-imidazo[4,5-c]pyridin-6-yl)amino)ethyl)amino)methyl)phenol]	5.05	466.25	37.3
CCN(CCNc1cc2[nH]c(-c3ccc(C(F)(F)F)nc3)nc2cn1)Cc1ccc(Cl)cc1O [Compound 19, 5-Chloro-2-((ethyl(2-((2-(6-(trifluoromethyl)pyridin-3-yl)-1H-imidazo[4,5-c]pyridin-6-yl)amino)ethyl)amino)methyl)phenol]	4.19	>131.58	> 50

Source: PMC10111423, “Antimalarial Imidazopyridines Incorporating an Intramolecular Hydrogen Bonding Motif: Medicinal Chemistry and Mechanistic Studies” (ACS Infectious Diseases, 2023)
